Molecular target: Histamine H4 receptor (Homo sapiens, UniProt Q9H3N8)
Experiment: Displacement of [3H]histamine from human histamine H4 receptor expressed in CHO cells after 90 mins by scintillation counting technique

Sequence of Histamine H4 receptor (Q9H3N8 whole entry): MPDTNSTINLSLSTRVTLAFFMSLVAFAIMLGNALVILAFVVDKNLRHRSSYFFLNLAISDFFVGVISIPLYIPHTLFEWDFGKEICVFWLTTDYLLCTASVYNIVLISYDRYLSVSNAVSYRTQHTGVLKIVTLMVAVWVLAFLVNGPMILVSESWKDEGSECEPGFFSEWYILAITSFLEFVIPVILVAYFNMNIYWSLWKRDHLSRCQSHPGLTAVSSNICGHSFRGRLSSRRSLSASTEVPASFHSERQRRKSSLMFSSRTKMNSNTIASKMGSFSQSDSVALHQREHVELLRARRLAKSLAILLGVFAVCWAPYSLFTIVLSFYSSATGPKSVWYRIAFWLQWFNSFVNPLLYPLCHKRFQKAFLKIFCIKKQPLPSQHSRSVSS

Row | Compound | Ki [µM]
1 | COCc1ccc(CN2CC[C@H](Nc3cc(NCCC(C)(C)C)ncn3)C2)o1 | 20
2 | CC(C)(C)CCNc1cc(N[C@H]2CCN(Cc3cccc(F)c3O)C2)ncn1 | 20

Reference: BindingDB's records for doi:10.1016/j.bmcl.2011.07.114 (Pfizer, 2011)
